In BindingDB's records for doi:10.1016/0960-894X(95)00509-R (1995):

Biological target: Platelet-activating factor receptor (Oryctolagus cuniculus)
Assay: Tested in vitro for antagonistic activity to displace [3H]PAF from rabbit platelet membrane PAF receptors

Ki	Compound
0.12 µM	CN(C)C(=O)n1cc(C(=O)c2ccn3c2CSC3c2cccnc2)c2cc(OCc3ccccc3)ccc21 (stereo not given) [5-Benzyloxy-3-(3-pyridin-3-yl-1H-pyrrolo[1,2-c]thiazole-7-carbonyl)-indole-1-carboxylic acid dimethylamide]
0.075 µM	O=C(c1ccn2c1CSC2c1cccnc1)c1c[nH]c2cc(-c3ccc(F)cc3)ccc12 (stereo not given) [[6-(4-Fluoro-phenyl)-1H-indol-3-yl]-(3-pyridin-3-yl-1H-pyrrolo[1,2-c]thiazol-7-yl)-methanone]
0.225 µM	O=C(c1ccn2c1CSC2c1cccnc1)c1cn(C(=O)N2CCOCC2)c2ccccc12 (stereo not given) [Morpholin-4-yl-[3-(3-pyridin-3-yl-1H-pyrrolo[1,2-c]thiazole-7-carbonyl)-indol-1-yl]-methanone]
0.017 µM	CN(C)C(=O)n1cc(C(=O)c2ccn3c2CSC3c2cccnc2)c2ccc(OCc3ccccc3)cc21 (stereo not given) [6-Benzyloxy-3-(3-pyridin-3-yl-1H-pyrrolo[1,2-c]thiazole-7-carbonyl)-indole-1-carboxylic acid dimethylamide]
0.007 µM	Cn1cc(C(=O)c2ccn3c2CSC3c2cccnc2)c2ccc(-c3ccc(F)cc3)cc21 (stereo not given) [[6-(4-Fluoro-phenyl)-1-methyl-1H-indol-3-yl]-(3-pyridin-3-yl-1H-pyrrolo[1,2-c]thiazol-7-yl)-methanone]
0.18 µM	O=C(c1ccn2c1CSC2c1cccnc1)c1c[nH]c2ccc(OCc3ccccc3)cc12 (stereo not given) [(5-Benzyloxy-1H-indol-3-yl)-(3-pyridin-3-yl-1H-pyrrolo[1,2-c]thiazol-7-yl)-methanone]
0.006 µM	NC(=O)n1cc(C(=O)c2ccn3c2CSC3c2cccnc2)c2ccc(-c3ccc(F)cc3)cc21 (stereo not given) [6-(4-Fluoro-phenyl)-3-(3-pyridin-3-yl-1H-pyrrolo[1,2-c]thiazole-7-carbonyl)-indole-1-carboxylic acid amide]
0.11 µM	CC(C)(C)OC(=O)n1cc(C(=O)c2ccn3c2CSC3c2cccnc2)c2ccccc21 (stereo not given) [3-(3-Pyridin-3-yl-1H-pyrrolo[1,2-c]thiazole-7-carbonyl)-indole-1-carboxylic acid tert-butyl ester]
0.089 µM	CN(C)C(=O)n1cc(C(=O)c2ccn3c2CSC3c2cccnc2)c2ccc(Cl)cc21 (stereo not given) [6-Chloro-3-(3-pyridin-3-yl-1H-pyrrolo[1,2-c]thiazole-7-carbonyl)-indole-1-carboxylic acid dimethylamide]
0.327 µM	O=C(c1ccn2c1CSC2c1cccnc1)c1c[nH]c2cccc(O)c12 (stereo not given) [(4-Hydroxy-1H-indol-3-yl)-(3-pyridin-3-yl-1H-pyrrolo[1,2-c]thiazol-7-yl)-methanone]
0.017 µM	CN(C)C(=O)n1cc(C(=O)c2ccn3c2CSC3c2cccnc2)c2ccc(Sc3ccc(F)cc3)cc21 (stereo not given) [6-(4-Fluoro-phenylsulfanyl)-3-(3-pyridin-3-yl-1H-pyrrolo[1,2-c]thiazole-7-carbonyl)-indole-1-carboxylic acid dimethylamide]
0.09 µM	O=C(c1ccn2c1CSC2c1cccnc1)c1c[nH]c2c(OCc3ccccc3)cccc12 (stereo not given) [(7-Benzyloxy-1H-indol-3-yl)-(3-pyridin-3-yl-1H-pyrrolo[1,2-c]thiazol-7-yl)-methanone]
0.023 µM	CN(C)C(=O)n1cc(C(=O)c2ccn3c2CSC3c2cccnc2)c2ccc(-c3ccccc3)cc21 (stereo not given) [6-Phenyl-3-(3-pyridin-3-yl-1H-pyrrolo[1,2-c]thiazole-7-carbonyl)-indole-1-carboxylic acid dimethylamide]
0.0017 µM	CN(C)C(=O)n1cc(C(=O)c2ccn3c2CSC3c2cccnc2)c2ccc(Oc3ccc(F)cc3)cc21 (stereo not given) [6-(4-Fluoro-phenoxy)-3-(3-pyridin-3-yl-1H-pyrrolo[1,2-c]thiazole-7-carbonyl)-indole-1-carboxylic acid dimethylamide]
0.095 µM	CN(C)C(=O)n1cc(C(=O)c2ccn3c2CSC3c2cccnc2)c2ccccc21 (stereo not given) [3-(3-Pyridin-3-yl-1H-pyrrolo[1,2-c]thiazole-7-carbonyl)-indole-1-carboxylic acid dimethylamide]
0.064 µM	O=C(c1ccn2c1CSC2c1cccnc1)c1c[nH]c2cc(OCc3ccccc3)ccc12 (stereo not given) [(6-Benzyloxy-1H-indol-3-yl)-(3-pyridin-3-yl-1H-pyrrolo[1,2-c]thiazol-7-yl)-methanone]
0.013 µM	CN(C)C(=O)n1cc(C(=O)c2ccn3c2CSC3c2cccnc2)c2ccc(Cc3ccccc3)cc21 (stereo not given) [6-Benzyl-3-(3-pyridin-3-yl-1H-pyrrolo[1,2-c]thiazole-7-carbonyl)-indole-1-carboxylic acid dimethylamide]
0.019 µM	CCNC(=O)n1cc(C(=O)c2ccn3c2CSC3c2cccnc2)c2ccc(-c3ccc(F)cc3)cc21 (stereo not given) [6-(4-Fluoro-phenyl)-3-(3-pyridin-3-yl-1H-pyrrolo[1,2-c]thiazole-7-carbonyl)-indole-1-carboxylic acid ethylamide]
0.025 µM	NNC(=O)n1cc(C(=O)c2ccn3c2CSC3c2cccnc2)c2ccc(-c3ccc(F)cc3)cc21 (stereo not given) [6-(4-Fluoro-phenyl)-3-(3-pyridin-3-yl-1H-pyrrolo[1,2-c]thiazole-7-carbonyl)-indole-1-carboxylic acid hydrazide]

Compound	Ki
CN(C)C(=O)Cn1cc(C(=O)c2ccn3c2CSC3c2cccnc2)c2ccc(-c3ccc(F)cc3)cc21 (stereo not given) [2-[6-(4-Fluoro-phenyl)-3-(3-pyridin-3-yl-1H-pyrrolo[1,2-c]thiazole-7-carbonyl)-indol-1-yl]-N,N-dimethyl-acetamide]	0.0007 µM
